In BigSolDB 2.1:

CCCCCCC1(CCCCCC)c2cc(Br)ccc2-c2ccc(Br)cc21
solubility (mole fraction)
Details	283.15 K	293.15 K	303.15 K	313.15 K	323.15 K
in 1,4-dioxane	–	0.0466	0.0801	0.113	0.17
in THF	0.0977	0.112	0.127	0.146	0.158
in acetonitrile	0.000305	0.000473	0.000684	0.000954	0.0012
in chloroform	0.0364	0.041	0.0483	0.0543	0.0613
in dichloromethane	0.0468	0.0633	0.0807	0.0987	0.118
in ethanol	0.00158	0.00182	0.00209	0.00233	0.00264
in ethyl acetate	0.0433	0.0613	0.0873	0.114	0.144
in isopropanol	0.000772	0.00117	0.00191	0.00293	0.00392
in methanol	0.000142	0.000189	0.000293	0.000427	0.000582
in n-butanol	0.00329	0.00586	0.00935	0.0127	0.0165
in n-hexane	0.0382	0.0578	0.0907	0.123	0.163
in toluene	0.0918	0.121	0.152	0.188	0.242
